US10428083B2, “Heterocyclylmethyl-thienouracile as antagonists of the adenosine-A2B-receptor” (BAYER PHARMA AKTIENGESELLSCHAFT, priority 2015, dated 2019)
pIC50: −log10 of the molar value.

target: human adenosine A2b receptor (Homo sapiens (Human), UniProt P29275); assay: Cellular in vitro reporter gene test for A2b receptor activity (CHO-K1, CRE-luciferase, NECA stimulation); assay type: cell-based; conditions: recombinant CHO-K1 cell line, CRE-luciferase reporter, antagonism of EC50 concentration of NECA; in some cases means of several determinations, rounded to two significant figures; read-out: A2b receptor IC50
Sequence (P29275 whole entry): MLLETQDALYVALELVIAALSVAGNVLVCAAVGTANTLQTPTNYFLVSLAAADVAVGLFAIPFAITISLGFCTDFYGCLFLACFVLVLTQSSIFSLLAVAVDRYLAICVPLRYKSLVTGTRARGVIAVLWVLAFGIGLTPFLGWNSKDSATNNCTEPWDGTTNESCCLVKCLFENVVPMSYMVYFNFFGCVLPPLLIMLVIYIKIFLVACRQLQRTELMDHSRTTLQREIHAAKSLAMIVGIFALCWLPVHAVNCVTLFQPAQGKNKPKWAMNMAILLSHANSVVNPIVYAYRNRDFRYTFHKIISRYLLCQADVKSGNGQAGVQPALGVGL
Method in brief: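 CHO-K1 cells with CRE-driven luciferase; antagonists co-incubated with NECA at its EC50, determined in a pre-experiment on each test day. Luciferase read by luminescence 3 h after NECA addition.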

Row | Structure (SMILES) | pIC50
1 | COCCn1c(=O)n(C(C)COC)c(=O)c2c(C)c(CN3CCNC3=O)sc21 (single isomer, unassigned) [Example 331, 1-(2-Methoxyethyl)-3-(1-methoxypropan-2-yl)-5-methyl-6-[(2-oxoimidazolidin-1-yl)methyl]thieno[2,3-d]pyrimidine-2,4(1H,3H)-dione] | 7.21
2 | COCCn1c(=O)c2c(C)c(Cn3cc[nH]c3=O)sc2n(CCOC)c1=O [Example 345, 1,3-Bis(2-methoxyethyl)-5-methyl-6-[(2-oxo-2,3-dihydro-1H-imidazol-1-yl)methyl]thieno[2,3-d]pyrimidine-2,4(1H,3H)-dione] | 7.77
3 | Cc1c(CN2CCNC2=NC#N)sc2c1c(=O)n(C(C)C)c(=O)n2CC1CCCO1 (racemic) [Example 267, [1-{[3-Isopropyl-5-methyl-2,4-dioxo-1-(tetrahydrofuran-2-ylmethyl)-1,2,3,4-tetrahydrothieno[2,3-d]pyrimidin-6-yl]methyl}imidazolidin-2-ylidene]cyanamide] | 8.34
4 | CCn1c(=O)c2c(C)c(CN3CCNC3=O)sc2n(CC#N)c1=O [Example 81, {3-Ethyl-5-methyl-2,4-dioxo-6-[(2-oxoimidazolidin-1-yl)methyl]-3,4-dihydrothieno[2,3-d]pyrimidin-1 (2H)-yl}acetonitrile] | 7.85
5 | COC(=O)N=C1NCCN1Cc1sc2c(c1C)c(=O)n(CC(C)(C)C)c(=O)n2CC1CCCO1 (single isomer, unassigned) [Example 465, Methyl [1-{[3-(2,2-dimethylpropyl)-5-methyl-2,4-dioxo-1-(tetrahydrofuran-2-ylmethyl)-1,2,3,4-tetrahydrothieno[2,3-d]pyrimidin-6-yl]methyl}imidazolidin-2-ylidene]carbamate] | 7.89
6 | Cc1c(CN2CCNC2=O)sc2c1c(=O)n(C(C)C)c(=O)n2CC1CCCO1 (single isomer, unassigned) [Example 187, 3-Isopropyl-5-methyl-6-[(2-oxoimidazolidin-1-yl)methyl]-1-(tetrahydrofuran-2-ylmethyl)thieno[2,3-d]pyrimidine-2,4(1H,3H)-dione] | 8.20
7 | COCCn1c(=O)c2c(C)c(CN3CCNC3=NC#N)sc2n(CCOC)c1=O [Example 363, [1-{[1,3-Bis(2-methoxyethyl)-5-methyl-2,4-dioxo-1,2,3,4-tetrahydrothieno[2,3-d]pyrimidin-6-yl]methyl}imidazolidin-2-ylidene]cyanamide] | 7.72
8 | CCOCCn1c(=O)c2c(C)c(CN3CCNC(=O)C3=O)sc2n(CCOC)c1=O [Example 404, 6-[(2,3-Dioxopiperazin-1-yl)methyl]-3-(2-ethoxyethyl)-1-(2-methoxyethyl)-5-methylthieno[2,3-d]pyrimidine-2,4(1H,3H)-dione] | 6.92
9 | Cc1c(CN2CCNC(=O)C2=O)sc2c1c(=O)n(CC(C)(C)C)c(=O)n2CCCF [Example 273, 3-(2,2-Dimethylpropyl)-6-[(2,3-dioxopiperazin-1-yl)methyl]-1-(3-fluoropropyl)-5-methylthieno[2,3-d]pyrimidine-2,4(1H,3H)-dione] | 7.72
10 | Cc1c(CN2CCNC2=O)sc2c1c(=O)n(C(C)C(F)(F)F)c(=O)n2CCC(F)(F)F (stereo not drawn) [Example 409, 5-Methyl-6-[(2-oxoimidazolidin-1-yl)methyl]-3-(t1,1,1-trifluoropropan-2-yl)-1-(3,3,3-trifluoropropyl)thieno[2,3-d]pyrimidine-2,4(1H,3H)-dione] | 7.85

Other lines, results leading:

Row | pIC50 | Structure (SMILES)
11 | 8.12 | Cc1c(CN2CCNC2=O)sc2c1c(=O)n(CC(F)(F)F)c(=O)n2C [Example 213, 1,5-Dimethyl-6-[(2-oxoimidazolidin-1-yl)methyl]-3-(2,2,2-trifluoroethyl)thieno[2,3-d]pyrimidine-2,4(1H,3H)-dione]
12 | 7.96 | COC(C)Cn1c(=O)c2c(C)c(CN3CCNC(=O)C3=O)sc2n(CCC(F)(F)F)c1=O (racemic) [Example 493, 6-[(2,3-Dioxopiperazin-1-yl)methyl]-3-(2-methoxypropyl)-5-methyl-1-(3,3,3-trifluoropropyl)thieno[2,3-d]pyrimidine-2,4(1H,3H)-dione]
13 | 7.80 | COCCn1c(=O)n(CC(C)(C)C)c(=O)c2c(C)c(CN3CCNC3=NC(=O)OC)sc21 [Example 462, Methyl [1-{[3-(2,2-dimethylpropyl)-1-(2-methoxyethyl)-5-methyl-2,4-dioxo-1,2,3,4-tetrahydrothieno[2,3-d]pyrimidin-6-yl]methyl}imidazolidin-2-ylidene]carbamate]
14 | 7.92 | COCCn1c(=O)n(CC(C)(C)C)c(=O)c2c(C)c(CN3CCNC3=NC#N)sc21 [Example 445, [1-{[3-(2,2-Dimethylpropyl)-1-(2-methoxyethyl)-5-methyl-2,4-dioxo-1,2,3,4-tetrahydrothieno[2,3-d]pyrimidin-6-yl]methyl}imidazolidin-2-ylidene]cyanamide]
15 | 7.85 | COCCn1c(=O)n(C(C)C(F)(F)F)c(=O)c2c(C)c(CN3CCNC3=NC#N)sc21 (racemic) [Example 452, [1-{[1-(2-Methoxyethyl)-5-methyl-2,4-dioxo-3-(1,1,1-trifluoropropan-2-yl)-1,2,3,4-tetrahydrothieno[2,3-d]pyrimidin-6-yl]methyl}imidazolidin-2-ylidene]cyanamide]
16 | 7.92 | COCCn1c(=O)n(CC(F)(F)F)c(=O)c2c(C)c(CN3CCNC3=S)sc21 [Example 41, 1-(2-Methoxyethyl)-5-methyl-6-[(2-thioxoimidazolidin-1-yl)methyl]-3-(2,2,2-trifluoroethyl)thieno[2,3-d]pyrimidine-2,4(1H,3H)-dione]
17 | 7.51 | CCn1c(=O)c2c(C)c(CN3CCNC3=O)sc2n(CCCOC)c1=O [Example 311, 3-Ethyl-1-(3-methoxypropyl)-5-methyl-6-[(2-oxoimidazolidin-1-yl)methyl]thieno[2,3-d]pyrimidine-2,4(1H,3H)-dione]
18 | 7.85 | CCOCCn1c(=O)c2c(C)c(CN3CCNC3=S)sc2n(CCOC)c1=O [Example 302, 3-(2-Ethoxyethyl)-1-(2-methoxyethyl)-5-methyl-6-[(2-thioxoimidazolidin-1-yl)methyl]thieno[2,3-d]pyrimidine-2,4(1H,3H)-dione]
19 | 7.92 | COCCn1c(=O)n(C(C)C(F)(F)F)c(=O)c2c(C)c(CN3CCNC3=O)sc21 (racemic) [Example 410, 1-(2-Methoxyethyl)-5-methyl-6-[(2-oxoimidazolidin-1-yl)methyl]-3-(1,1,1-trifluoropropan-2-yl)thieno[2,3-d]pyrimidine-2,4(1H,3H)-dione]
20 | 8.51 | Cc1c(CN2CCNC2=O)sc2c1c(=O)n(CC(F)F)c(=O)n2CCC(F)(F)F [Example 214, 3-(2,2-Difluoroethyl)-5-methyl-6-[(2-oxoimidazolidin-1-yl)methyl]-1-(3,3,3-trifluoropropyl)thieno[2,3-d]pyrimidine-2,4(1H,3H)-dione]
21 | 8.25 | Cc1c(CN2CCNC2=S)sc2c1c(=O)n(CC(F)(F)F)c(=O)n2CC1CCCO1 (single isomer, unassigned) [Example 299, 5-Methyl-1-(tetrahydrofuran-2-ylmethyl)-6-[(2-thioxoimidazolidin-1-yl)methyl]-3-(2,2,2-trifluoroethyl)thieno[2,3-d]pyrimidine-2,4(1H,3H)-dione]
